Structures can show the parent of a compound that is named as a salt. Where two headings read alike, the source gives them in different places.

We go through four molecules from patent US20100056524A1, “Compound” (priority 2008, published 2010).

Holding throughout (assay type): biochemical
One test addresses T1, IKKb (Homo sapiens, UniProt O14920).
T1 construct: All protein kinases were of human origin and encoded full length proteins, unless indicated otherwise; made in house
T1 sequence (O14920 1-756): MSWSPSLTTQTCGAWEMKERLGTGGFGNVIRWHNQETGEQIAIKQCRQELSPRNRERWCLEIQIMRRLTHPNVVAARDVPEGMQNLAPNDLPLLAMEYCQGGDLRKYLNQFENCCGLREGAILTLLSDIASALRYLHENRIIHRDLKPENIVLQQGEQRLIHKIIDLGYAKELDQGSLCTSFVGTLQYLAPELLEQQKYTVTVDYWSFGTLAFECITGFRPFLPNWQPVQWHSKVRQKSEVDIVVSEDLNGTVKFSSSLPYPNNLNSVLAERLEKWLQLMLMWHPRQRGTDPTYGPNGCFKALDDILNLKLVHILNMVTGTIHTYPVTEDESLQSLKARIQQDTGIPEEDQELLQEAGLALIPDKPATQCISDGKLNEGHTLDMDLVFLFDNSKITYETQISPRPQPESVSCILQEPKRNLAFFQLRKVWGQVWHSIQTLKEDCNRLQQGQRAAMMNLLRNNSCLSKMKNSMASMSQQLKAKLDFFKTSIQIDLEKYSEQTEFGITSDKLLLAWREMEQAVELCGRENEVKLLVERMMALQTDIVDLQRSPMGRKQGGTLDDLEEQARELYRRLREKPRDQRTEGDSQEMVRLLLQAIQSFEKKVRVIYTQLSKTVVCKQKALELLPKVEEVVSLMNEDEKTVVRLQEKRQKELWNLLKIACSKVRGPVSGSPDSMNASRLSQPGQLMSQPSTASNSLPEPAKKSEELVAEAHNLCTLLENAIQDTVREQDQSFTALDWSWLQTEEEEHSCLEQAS
The test can be described thus: IKKb protein kinase assay. Particulars: for remaining activity at 1 µM: 1 μM compound; for remaining activity at 10 µM: 10 μM compound; for residual kinase activity IKKb: 1 μm compound. An excerpt:
(§1) All protein kinases were of human origin and encoded full length proteins, unless indicated otherwise. They were either expressed as glutathione S-transferase (GST) fusion proteins in Escherichia Coli or as hexahistidine (His6)-tagged proteins in insect Sf21 cells. GST fusion proteins were purified by affinity chromatography on glutathione-Sepharose, and His6-tagged proteins on nickel/nitriloacetate-agarose. The procedures for expressing some of the protein kinases used herein have been detailed previously.^8,9 The following sections outline the DNA vectors synthesised and the procedures used to express and purifying protein kinases that have not been reported previously.
(§2) All assays (25.5 μl) were carried out at room temperature (21° C.) and were linear with respect to time and enzyme concentration under the conditions used. Assays were performed for 30 min using Multidrop Micro reagent dispensers (Thermo Electron Corporation, Waltham, Mass. 02454, USA) in a 96-well format. The concentration of magnesium acetate in the assays was 10 mM and the [γ-33P] ATP (800 cpm/pmol) was used at 5, 20 or 50 μM as indicated, in order to be at or below the Km for ATP for each enzyme. Protein kinases assayed at 5 μM ATP were: —ERK1, ERK8, PKBα, MARK3, Aurora C. Protein kinases assayed at 20 μM ATP were: —JNK1, PDK1, CHK1, CHK2, CDK2 and Aurora B. Protein kinases assayed at 50 μM ATP were: —MNK2, IKKepsilon and TBK1.
(§3) The assays were initiated with MgATP, stopped by addition of 5 μl of 0.5 M orthophosphoric acid and spotted on to P81 filterplates using a unifilter harvester (PerkinElmer, Boston, Mass. 02118, USA). The IC50 values of inhibitors were determined after carrying out assays at 10 different concentrations of each compound.
(§4) Unless stated otherwise, enzymes were diluted in 50 mM Tris/HCl pH 7.5, 0.1 mM EGTA, 1 mg/ml BSA, 0.1% (v/v) 2-mercaptoethanol and assayed in 50 mM Tris/HCl pH 7.5, 0.1 mM EGTA, 0.1% (v/v) 2-mercaptoethanol.

The next test addresses T2, EF2K (Homo sapiens, UniProt O00418).
T2 construct: All protein kinases were of human origin and encoded full length proteins, unless indicated otherwise; made in house
Briefly: EF2K protein kinase assay. Particulars: for remaining activity at 1 µM: 1 μM compound; for remaining activity at 10 µM: 10 μM compound; for residual kinase activity EF2K: 1 μm compound.
From the text: as §1, §2, §3, §4

The target of a further test is T3, CHK2 (Homo sapiens, UniProt O96017).
T3 construct: The following proteins were expressed in E. coli: —CHK2[5-543]; GST; made in house; host or cells: E. coli
T3 sequence (O96017 5-543): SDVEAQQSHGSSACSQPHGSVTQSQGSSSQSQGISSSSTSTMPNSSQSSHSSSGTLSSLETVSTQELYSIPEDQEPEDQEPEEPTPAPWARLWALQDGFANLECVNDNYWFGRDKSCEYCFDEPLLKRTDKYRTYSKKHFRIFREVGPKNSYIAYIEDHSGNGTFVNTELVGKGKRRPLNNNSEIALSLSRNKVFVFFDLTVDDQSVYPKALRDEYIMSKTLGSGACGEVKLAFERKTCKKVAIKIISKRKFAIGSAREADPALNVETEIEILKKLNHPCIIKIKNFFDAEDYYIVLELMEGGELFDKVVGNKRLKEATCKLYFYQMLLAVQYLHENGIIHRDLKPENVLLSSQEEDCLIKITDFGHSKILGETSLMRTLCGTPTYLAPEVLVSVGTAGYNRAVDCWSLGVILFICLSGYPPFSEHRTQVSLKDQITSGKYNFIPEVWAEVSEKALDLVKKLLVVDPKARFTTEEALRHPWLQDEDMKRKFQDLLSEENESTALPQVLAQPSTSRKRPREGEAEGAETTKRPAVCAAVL
The test can be described thus: CHK2 protein kinase assay. Particulars: for remaining activity at 1 µM: 1 μM compound; for remaining activity at 10 µM: 10 μM compound; for residual kinase activity CHK2: 1 μm compound.
From the text: as §1
The following proteins were expressed in E. coli: —CHK2[5-543], cyclin-dependent protein kinase 2 (CDK2), MAP kinase-interacting kinase 2 (MNK2), extra-cellular signal-regulated kinase 1 (ERK1).
as §2, §3, §4

Another test has as its target T4, p38g MAPK (Homo sapiens, UniProt P53778).
T4 construct: All protein kinases were of human origin and encoded full length proteins, unless indicated otherwise; made in house
T4 sequence (P53778 1-367): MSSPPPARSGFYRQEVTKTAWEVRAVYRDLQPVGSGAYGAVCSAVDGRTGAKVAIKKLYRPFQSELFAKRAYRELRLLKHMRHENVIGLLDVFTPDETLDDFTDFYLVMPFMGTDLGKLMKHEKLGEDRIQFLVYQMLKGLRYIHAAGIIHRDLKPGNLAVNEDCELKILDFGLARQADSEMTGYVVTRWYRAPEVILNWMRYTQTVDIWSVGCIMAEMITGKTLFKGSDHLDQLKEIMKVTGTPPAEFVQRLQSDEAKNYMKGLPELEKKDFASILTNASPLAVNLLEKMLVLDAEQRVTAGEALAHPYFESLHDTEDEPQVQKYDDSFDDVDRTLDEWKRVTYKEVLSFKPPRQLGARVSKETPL
The test can be described thus: p38g MAPK protein kinase assay. Particulars: for remaining activity at 1 µM: 1 μM compound; for remaining activity at 10 µM: 10 μM compound; for residual kinase activity p38g MAPK: 1 μm compound.
From the text: as §1, §2, §3, §4

Setting [1] is: IKKb, read-out: residual kinase activity.
Setting [2] is: EF2K, read-out: residual kinase activity.
The mark [3] stands for this setting: CHK2, 20 μM ATP, read-out: residual kinase activity.
[4] abbreviates: p38g MAPK, read-out: residual kinase activity.
[5] abbreviates: read-out: residual kinase activity IKKb.
Where [6] appears, read: read-out: residual kinase activity EF2K.
Where [7] appears, read: read-out: residual kinase activity CHK2.
[8] abbreviates: read-out: residual kinase activity p38g MAPK.

Turning to `O=C(NCCCNc1nc(Nc2cccnc2)ncc1C1CC1)c1cccs1` [Example 50, Thiophene-2-carboxylic acid {3-[5-cyclopropyl-2-(pyridin-3-ylamino)-pyrimidin-4-ylamino]-propyl}-amide], the remaining activity at 1 µM on IKKb (setting [1]) amounted to 90%; at EF2K (setting [2]), 108%; at CHK2 (setting [3]), 52%; on p38g MAPK (setting [4]) it was 93%. Further, the remaining activity at 10 µM on IKKb (setting [1]) came to 88%; on EF2K (setting [2]), 101%; at CHK2 (setting [3]) it was 16%; on p38g MAPK (setting [4]), 80%.

Take `O=C(NCCCNc1nc(Nc2cccc(F)c2)ncc1Br)C1CCC1` [Compound A, cyclobutanecarboxylic acid {3-[5-bromo-2-(3-fluoro-phenylamino)-pyrimidin-4-ylamino]-propyl}-amide, reference compound]: the remaining activity at 10 µM at IKKb (setting [5]) is 66%; at EF2K (setting [6]) it was 88%; on CHK2 (setting [7]) it was 12%; at p38g MAPK (setting [8]) it was 17%. The “residual kinase activity IKKb” value at IKKb stood at 93%. Further, the “residual kinase activity EF2K” value at EF2K worked out at 96%. Also, the “residual kinase activity CHK2” value on CHK2 is recorded as 13%. Also, the “residual kinase activity p38g MAPK” value at p38g MAPK was determined as 65%.

In the case of `O=C(NCCCNc1nc(Nc2cccc(F)c2)ncc1C1CC1)C1CCC1` [Example 23, Cyclobutanecarboxylic acid {3-[5-cyclopropyl-2-(3-fluoro-phenylamino)-pyrimidin-4-ylamino]-propyl}-amide], the remaining activity at 10 µM on IKKb (setting [5]) was 80%; at IKKb (setting [1]) it was 80%; at EF2K (setting [6]) it was 125%; on EF2K (setting [2]), 125%; on CHK2 (setting [7]) it was 11%; at CHK2 (setting [3]), 11%. Also, the remaining activity at 10 µM on p38g MAPK (setting [8]) and at p38g MAPK (setting [4]) was 91% in each case. Besides, the “residual kinase activity IKKb” value on IKKb is given as 75%. The remaining activity at 1 µM on IKKb (setting [1]) turned out to be 75%; at EF2K (setting [2]) it was 105%; on CHK2 (setting [3]), 50%; at p38g MAPK (setting [4]), 81%. Besides, the “residual kinase activity EF2K” value on EF2K turned out to be 105%. Besides, the “residual kinase activity CHK2” value at CHK2 is listed as 50%. In addition, at p38g MAPK, the “residual kinase activity p38g MAPK” value was 81%.

Consider `O=C(NCCCNc1nc(Nc2cccc(N3CCCC3=O)c2)ncc1C1CC1)c1cccs1` [Example 47, Thiophene-2-carboxylic acid (3-{5-cyclopropyl-2-[3-(2-oxo-pyrrolidin-1-yl)-phenylamino]-pyrimidin-4-ylamino}-propyl)-amide. Hydrochloride salt], for which the remaining activity at 1 µM on IKKb (setting [1]) was 91%; at EF2K (setting [2]), 105%; at CHK2 (setting [3]), 71%; on p38g MAPK (setting [4]), 97%. The remaining activity at 10 µM on IKKb (setting [1]) came to 86%; at EF2K (setting [2]), 104%; at CHK2 (setting [3]), 28%; at p38g MAPK (setting [4]), 77%.
